Laboratory results reported in patent US6767917B1, “Amorphous torasemide modification” (Pliva d.d., priority 2000, dated 2004).

What was measured:
[1] = Release of the active substance in water (USP 24); format: physicochemical; conditions: for Released torasemide: water, USP 24, 37° C., 50 rpm, 1000 ml
Description: The amorphous torasemide modification as such is suitable for the preparation of pharmaceutical prepartions having short-term or prolonged actions. The amorphous torasemide modification prepared according to Example 1 of the present invention was subjected to the test of the release of the active substance in water at a temperature of 37° C. (USP 24) and the results are represented in Table 1. [table]

[2] = Solid-state stability of the amorphous modification (conversion into crystal modifications); format: physicochemical; conditions: normal storage conditions, at crushing and compressing

## Cc1cccc(Nc2ccncc2S(=O)(=O)NC(=O)NC(C)C)c1 [amorphous torasemide modification, N-(1-methylethylaminocarbonyl)-4-(3-methyl-phenylamino)-3-pyridinesulfonamide]
[1]; in water (USP 24), same medium
  Release profile in comparison with the known crystal torasemide modifications: slower release
[1]; time 0 minutes
  Released torasemide: 0%
[1]; time 15 minutes
  Released torasemide: 6.8%
[1]; time 30 minutes
  Released torasemide: 10.2%
[1]; time 45 minutes
  Released torasemide: 13.0%
[1]; time 60 minutes
  Released torasemide: 15.9%
[1]; time 90 minutes
  Released torasemide: 20.4%
[1]; time 120 minutes
  Released torasemide: 24.9%
[2]
  Stability (no conversion into crystal modification I, II or III): stable
